Experimental data published in US11512074B2, “Substituted diamino heterocyclic carboxamide compound and a composition containing the compound and use thereof” (Shenzhen TargetRx, Inc., priority 2018, dated 2022).
Where two headings read alike, the source gives them in different places.

Experiment: Pharmacokinetic experiment in rats
Assay type: in vivo, Sprague-Dawley rats
Conditions: rat; for AUC(0-t) / Cmax / Tmax / half-life / AUC(0-inf) / MRT inf: male, Sprague-Dawley, plasma; for AUC(0-inf): read-out: AUCINF_pred; for MRT inf: read-out: MRTINF_pred; for F: PO 10 mg/kg vs IV 3 mg/kg
Procedure: Six male Sprague-Dawley rats, 7 to 8 weeks old, weighing approximately 210 g, were divided into 2 groups with 3 rats in each group. The pharmacokinetic differences of the compounds were compared after they were administered to the rats at a single dose through vein (in vein 3 mg/kg) or mouth (orally 10 mg/kg).
The rats were fed with standard feed and water, and fasted 16 hours before the experiment. The drugs were dissolved with PEG400 and dimethyl sulfoxide. The blood samples were collected from eyelids at the time point of 0.083, 0.25, 0.5, 1, 2, 4, 6, 8, 12 and 24 hours after administration.
The rats were anesthetized for a short time after inhaling ether, and 300 μL of blood samples was collected from the eyelids and put into test tubes, which contains 30 μL of 1% heparin salt solution. The test tubes were dried overnight at 60° C. prior to use. After the blood sample collection at the last time point, the rats were sacrificed after the ether anesthesia.
Immediately after the collection of the blood samples, the test tubes were gently inverted at least 5 times to ensure the fully mixing and placed on ice. The blood samples were centrifuged at 4° C., 5000 rpm for 5 minutes to separate the plasma from the red blood cells. 100 μL of plasma was pipetted into a clean plastic centrifuge tube, with the name of the compound and time point on it. The plasma was stored at −80° C. before analysis, and LC-MS/MS was used to determine the concentration of the compounds disclosed herein in plasma. Pharmacokinetic parameters were calculated based on the plasma concentrations of each animal at different time points.

| SMILES | AUC(0-t) (IV 3 mg/kg) | Cmax (IV 3 mg/kg) | Tmax (IV 3 mg/kg) | half-life (IV 3 mg/kg) | AUC(0-inf) (IV 3 mg/kg) | MRT inf (IV 3 mg/kg) | AUC(0-t) (PO 10 mg/kg) | Cmax (PO 10 mg/kg) | Tmax (PO 10 mg/kg) | half-life (PO 10 mg/kg) | AUC(0-inf) (PO 10 mg/kg) | MRT inf (PO 10 mg/kg) | Vz_pred (IV 3 mg/kg) | Vz_pred (PO 10 mg/kg) | F |
| --- | --- | --- | --- | --- | --- | --- | --- | --- | --- | --- | --- | --- | --- | --- | --- |
| [2H]C([2H])([2H])Oc1cc(Nc2nc(NC3CCOCC3)c(CC)nc2C(N)=O)ccc1N1CCC(N2CCN(C)CC2)CC1 [Compound T-1, 6-ethyl-3-((3-(methoxy-d3)-4-(4-(4-methylpiperazin-1-yl)piperidin-1-yl)phenyl)amino)-5-((tetrahydro-2H-pyran-4-yl)amino)pyrazine-2-carboxamide] | 556 ng·h/mL | 138 ng/mL | 0.08 h | 3.59 h | 572 ng·h/mL | 4.2 h | 510 ng·h/mL | 48.4 ng/mL | 5.33 h | 5.93 h | 578 ng·h/mL | 7.89 h | 28.80 L/kg | 162.8 L/kg | 27.52% |
| CCc1nc(C(N)=O)c(Nc2ccc(N3CCC(N4CCN(C)CC4)CC3)c(OC)c2)nc1NC1CCOCC1 [Gilteritinib, 6-ethyl-3-((3-methoxy-4-(4-(4-methylpiperazin-1-yl)piperidin-1-yl)phenyl)amino)-5-((tetrahydro-2H-pyran-4-yl)amino)pyrazine-2-carboxamide, reference compound] | 449 ng·h/mL | 196 ng/mL | 0.08 h | 4.08 h | 509 ng·h/mL | 3.44 h | 317 ng·h/mL | 34.6 ng/mL | 8 h | 5.76 h | 435 ng·h/mL | 7.46 h | 34.89 L/kg | 212.0 L/kg | 21.15% |
